Results taken from ChEMBL document CHEMBL5226297, “Small-Molecule Drug Discovery in Triple Negative Breast Cancer: Current Situation and Future Directions” (J Med Chem, 2021).

Tests used:
[1] = molecular target: Plasminogen activator inhibitor 1 (Homo sapiens) (UniProt P05121)
[2] = Inhibition of MEK (unknown origin); set-up: species or system Homo sapiens
[3] = Inhibition of ERK (unknown origin); set-up: species or system Homo sapiens
Interleukin-8 = Interleukin-8 (Homo sapiens, UniProt P10145); experiment: Inhibition of human IL-8 by ELISA assay
BT-20 = experiment: Anticancer activity against human BT-20 cells assessed as cell growth inhibition incubated for 5 days by sulforhodamine B staining based assay; assay type: functional; conditions: BT-20, 120 h
MDA-MB-231 [4] = experiment: Anticancer activity against human MDA-MB-231 cells assessed as cell growth inhibition incubated for 5 days by sulforhodamine B staining based assay; assay type: functional; conditions: MDA-MB-231, 120 h
HCC1806 [5] = experiment: Anticancer activity against human HCC1806 cells assessed as cell growth inhibition incubated for 5 days by sulforhodamine B staining based assay; assay type: functional; conditions: HCC1806, 120 h
SUM149PT = experiment: Anticancer activity against human SUM149 cells assessed as cell growth inhibition incubated for 5 days by sulforhodamine B staining based assay; assay type: functional; conditions: 120 h
HCC70 [6] = experiment: Anticancer activity against human HCC70 cells assessed as cell growth inhibition incubated for 5 days by sulforhodamine B staining based assay; assay type: functional; conditions: HCC70, 120 h
HCC1937 [7] = experiment: Anticancer activity against human HCC1937 cells assessed as cell growth inhibition incubated for 5 days by sulforhodamine B staining based assay; assay type: functional; conditions: HCC1937, 120 h
SUM-159-PT = experiment: Anticancer activity against human SUM159 cells assessed as cell growth inhibition incubated for 5 days by sulforhodamine B staining based assay; assay type: functional; conditions: 120 h
HCC1806 [8] = experiment: Anticancer activity against human HCC1806 cells assessed as cell growth inhibition incubated for 48 hrs by SRB assay; assay type: functional, cell-based; conditions: HCC1806, 48 h
BT-549 [9] = experiment: Anticancer activity against human BT-549 cells assessed as cell growth inhibition by MTS assay; assay type: functional, cell-based
Hs-578T [10] = experiment: Anticancer activity against human Hs-578T cells assessed as cell growth inhibition by MTS assay; assay type: functional, cell-based
MDA-MB-231 [11] = experiment: Anticancer activity against human MDA-MB-231 cells assessed as cell growth inhibition by MTS assay; assay type: functional, cell-based
MDA-MB-231 [12] = experiment: Anticancer activity against human MDA-MB-231 cells assessed as cell growth inhibition incubated for 24 hrs by MTT assay; assay type: functional, cell-based; conditions: MDA-MB-231, 24 h
[13] = molecular target: Proto-oncogene tyrosine-protein kinase Src (Homo sapiens, UniProt P12931); experiment: Inhibition of human SRC by microplate reader analysis
[14] = molecular target: Protein tyrosine phosphatase type IVA 3 (Homo sapiens) (UniProt O75365); experiment: Inhibition of human PRL-3 incubated for 48 hrs by MMP assay
[15] = molecular target: Protein SET (Homo sapiens) (UniProt Q01105); experiment: Inhibition of SET (unknown origin)
[16] = Inhibition of cIAP1 (unknown origin); set-up: species or system Homo sapiens
MDA-MB-436 = experiment: Anticancer activity against human MDA-MB-436 cells assessed as cell growth inhibition incubated for 24 hrs by MTT assay; assay type: functional, cell-based; conditions: MDA-MB-436, 24 h
BT-549 [17] = experiment: Anticancer activity against human BT-549 cells assessed as cell growth inhibition incubated for 24 hrs by MTT assay; assay type: functional, cell-based; conditions: BT-549, 24 h
MDA-MB-231 [18] = experiment: Anticancer activity against human MDA-MB-231 cells assessed as cell growth inhibition; assay type: functional, cell-based
HCC1937 [19] = experiment: Anticancer activity against human HCC1937 cells assessed as cell growth inhibition incubated for 24 hrs by MTS assay; assay type: functional, cell-based; conditions: HCC1937, 24 h
HCC1806 [20] = experiment: Anticancer activity against human HCC1806 cells assessed as cell growth inhibition incubated for 24 hrs by MTS assay; assay type: functional, cell-based; conditions: HCC1806, 24 h
Hs-578T [21] = experiment: Anticancer activity against human Hs-578T cells assessed as cell growth inhibition incubated for 72 hrs by MTT assay; assay type: functional, cell-based
HCC70 [22] = experiment: Anticancer activity against human HCC70 cells assessed as cell growth inhibition incubated for 72 hrs by MTT assay; assay type: functional, cell-based; conditions: HCC70, 72 h
HCC1937 [23] = experiment: Anticancer activity against human HCC1937 cells assessed as cell growth inhibition incubated for 72 hrs by MTT assay; assay type: functional, cell-based; conditions: HCC1937, 72 h
MDA-MB-231 [24] = experiment: Anticancer activity against human MDA-MB-231 cells assessed as cell growth inhibition incubated for 72 hrs by MTT assay; assay type: functional, cell-based; conditions: MDA-MB-231, 72 h
BT-549 [25] = experiment: Anticancer activity against human BT-549 cells assessed as cell growth inhibition incubated for 72 hrs by CCK-8 assay; assay type: functional, cell-based; conditions: BT-549, 72 h
Hs-578T [26] = experiment: Anticancer activity against human Hs-578T cells assessed as cell growth inhibition incubated for 72 hrs by CCK-8 assay; assay type: functional, cell-based
MDA-MB-231 [27] = experiment: Anticancer activity against human MDA-MB-231 cells assessed as cell growth inhibition incubated for 72 hrs by CCK-8 assay; assay type: functional, cell-based; conditions: MDA-MB-231, 72 h

Sequence of Protein SET (Homo sapiens) (Q01105 whole entry): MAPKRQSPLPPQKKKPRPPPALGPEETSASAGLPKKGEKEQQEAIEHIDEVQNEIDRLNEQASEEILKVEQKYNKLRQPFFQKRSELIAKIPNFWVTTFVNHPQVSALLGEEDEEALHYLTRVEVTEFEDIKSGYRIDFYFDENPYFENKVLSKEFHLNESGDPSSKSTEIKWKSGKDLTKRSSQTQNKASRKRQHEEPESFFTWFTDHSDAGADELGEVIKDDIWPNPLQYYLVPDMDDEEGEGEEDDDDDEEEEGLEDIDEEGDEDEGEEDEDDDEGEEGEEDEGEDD
Sequence of Proto-oncogene tyrosine-protein kinase Src (P12931 2-536 limits assumed): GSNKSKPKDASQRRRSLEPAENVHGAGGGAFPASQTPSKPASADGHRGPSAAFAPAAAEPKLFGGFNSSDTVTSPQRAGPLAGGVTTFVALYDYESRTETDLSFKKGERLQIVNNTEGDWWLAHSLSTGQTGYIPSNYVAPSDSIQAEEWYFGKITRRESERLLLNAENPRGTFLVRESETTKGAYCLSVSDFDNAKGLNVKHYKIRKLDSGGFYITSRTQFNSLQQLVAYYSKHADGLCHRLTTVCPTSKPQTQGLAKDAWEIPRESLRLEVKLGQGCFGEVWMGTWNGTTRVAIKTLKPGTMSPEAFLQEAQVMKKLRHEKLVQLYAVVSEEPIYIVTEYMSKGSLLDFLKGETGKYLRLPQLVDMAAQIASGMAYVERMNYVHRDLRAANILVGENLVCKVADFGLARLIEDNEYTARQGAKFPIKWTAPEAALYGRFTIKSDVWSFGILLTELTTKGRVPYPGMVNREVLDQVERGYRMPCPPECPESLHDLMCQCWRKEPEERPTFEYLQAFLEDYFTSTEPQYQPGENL
Sequence of Protein tyrosine phosphatase type IVA 3 (Homo sapiens) (O75365 whole entry): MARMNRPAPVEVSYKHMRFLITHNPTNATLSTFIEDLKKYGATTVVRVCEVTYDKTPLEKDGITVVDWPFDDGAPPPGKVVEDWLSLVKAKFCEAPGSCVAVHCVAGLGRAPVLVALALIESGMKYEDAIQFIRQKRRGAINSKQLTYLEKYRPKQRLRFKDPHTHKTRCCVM
Sequence of Interleukin-8 (P10145 whole entry): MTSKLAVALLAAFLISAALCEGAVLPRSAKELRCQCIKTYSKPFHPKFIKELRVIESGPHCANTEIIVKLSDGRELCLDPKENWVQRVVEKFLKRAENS
Sequence of Plasminogen activator inhibitor 1 (Homo sapiens) (P05121 whole entry): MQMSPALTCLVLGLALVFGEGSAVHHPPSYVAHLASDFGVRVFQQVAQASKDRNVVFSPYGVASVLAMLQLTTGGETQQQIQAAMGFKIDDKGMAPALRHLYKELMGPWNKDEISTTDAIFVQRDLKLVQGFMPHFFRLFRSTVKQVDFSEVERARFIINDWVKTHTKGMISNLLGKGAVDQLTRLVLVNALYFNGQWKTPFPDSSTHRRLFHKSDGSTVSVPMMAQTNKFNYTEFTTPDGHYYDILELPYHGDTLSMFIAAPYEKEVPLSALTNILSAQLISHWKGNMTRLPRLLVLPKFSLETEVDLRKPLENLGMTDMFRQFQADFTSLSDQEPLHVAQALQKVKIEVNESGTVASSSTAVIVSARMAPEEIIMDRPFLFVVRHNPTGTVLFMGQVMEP

## O=C(O)C(=O)c1cn(Cc2ccccc2)c2ccc(-c3ccc(OC(F)(F)F)cc3)cc12
[1]
  IC: 5 µM

## CCOC(=O)C1=C(C)NC(=O)NC1c1cccc([N+](=O)[O-])c1 (configuration not stated)
[2]
  IC50: 50 µM
[3]
  IC50: 50 µM

## COc1ccc2cc3[n+](cc2c1OC)CCc1cc2c(cc1-3)OCO2 [BERBERINE]
Interleukin-8
  IC50: 50 µM

## CCNc1cc(O)c2c(c1)/C=C/C[C@H](O)[C@H](O)C(=O)/C=C\[C@@H](C)[C@H](C)OC2=O [E-6201]
BT-20
  IC50: 10.1 µM
MDA-MB-231 [4]
  IC50: 0.25 µM
HCC1806 [5]
  IC50: 2.5 µM
SUM149PT
  IC50: 0.21 µM
HCC70 [6]
  IC50: 8.79 µM
HCC1937 [7]
  IC50: 3.73 µM
SUM-159-PT
  IC50: 2.36 µM

## C[C@H]1[C@H](C)CC[C@]2(C(=O)N3CCNCC3)CC[C@]3(C)C(=CC[C@@H]4[C@@]5(C)Cc6cn[nH]c6C(C)(C)[C@@H]5CC[C@]43C)[C@H]12
HCC1806 [8]
  IC50: 7 µM

## COC(=O)Nc1nc2cc(C(=O)c3ccc(F)cc3)ccc2[nH]1 [FLUBENDAZOLE]
BT-549 [9]
  IC50: 0.125 µM
Hs-578T [10]
  IC50: 0.125 µM
MDA-MB-231 [11]
  IC50: 0.25 µM
MDA-MB-231 [12]
  IC50: 0.5 µM

## Cc1nc2c(c(C)c1O)CC(=O)N2
[13]
  IC50: 3.23 µM

## C=C1/C(=C\C=C2/CCC[C@]3(C)[C@@H]([C@H](C)CCCC(C)(C)O)CC[C@@H]23)C[C@@H](OC(=O)CBr)C[C@@H]1O
[14]
  IC: 100 nM

## C#Cc1cccc(Nc2nc(Nc3ccc(Oc4ccccc4)cc3)nc3cc(OC)c(OC)cc23)c1
[15]
  IC: 3 µM

## CN[C@@H](C)C(=O)N[C@H](C(=O)N1CCC[C@H]1c1nc(C(=O)c2ccc(F)cc2)cs1)C1CCCCC1 [LCL-161]
[16]
  IC50: 0.0004 µM

## C=C1C(=O)O[C@]2(C)CC[C@H](CBr)[C@]12OC
MDA-MB-436
  IC50: 8.63 µM
BT-549 [17]
  IC50: 6.61 µM
MDA-MB-231 [12]
  IC50: 7.91 µM

## CO[C@H]1C[C@H](C)Cc2cc(O)cc(c2)NC(=O)/C(C)=C/CC[C@H](OC)[C@@H](OC(N)=O)/C(C)=C/[C@H](C)[C@H]1O
MDA-MB-231 [18]
  IC50: 74.9 µM

## Cc1nc(NCc2ccccc2F)ncc1C(=O)NCc1cccs1
MDA-MB-436
  IC50: 7.89 µM

## CC[C@@H](C(=O)[C@@H](C)[C@@H](O)[C@H](C)[C@@H]1O[C@@H]([C@@H](CC)C(=O)O)CC[C@@H]1C)[C@H]1O[C@]2(C=C[C@@H](O)[C@]3(CC[C@@](C)([C@H]4CC[C@](O)(CC)[C@H](C)O4)O3)O2)[C@H](C)C[C@@H]1C [SALINOMYCIN]
MDA-MB-231 [11]
  IC50: 0.5 µM

## COC(=O)[C@@H](O)[C@](O)(CCC(C)C)C(=O)O[C@@H]1C(OC)=C[C@]23CCCN2CCc2cc4c(cc2[C@H]13)OCO4
HCC1937 [19]
  IC50: 0.5 µM
HCC1806 [20]
  IC50: 0.1 µM

## COc1cc2nccc(C(OC(C)=O)c3ccc4c(c3OC)C=CC(C)(C)O4)c2cc1OC (configuration not stated)
BT-549 [9]
  IC50: 15 µM
Hs-578T [10]
  IC50: 5 µM
MDA-MB-231 [11]
  IC50: 5 µM

## CNCCC(Oc1ccc(C(F)(F)F)cc1)c1ccccc1 (configuration not stated) [FLUOXETINE]
MDA-MB-436
  IC50: 0.5 µM
MDA-MB-231 [12]
  IC50: 0.5 µM

## O=C(Nc1ccc([N+](=O)[O-])cc1Cl)c1cc(Cl)ccc1O [NICLOSAMIDE]
MDA-MB-231 [12]
  IC50: 0.625 µM

## C[C@@H]1COC(Nc2ccc3ncnc(Nc4ccc(OCc5nccs5)c(Cl)c4)c3c2)=N1 [VARLITINIB]
Hs-578T [21]
  IC50: 10 µM
HCC70 [22]
  IC50: 10 µM
HCC1937 [23]
  IC50: 20 µM

## C=Cc1c(C)c2cc3nc(c4c5nc(cc6[nH]c(cc1[nH]2)c(C)c6CC)C(C)=C5C(=O)[C@@H]4C(=O)OC)C(CCC(=O)O)=C3C
MDA-MB-231 [24]
  IC50: 6.5 µM

## CO[C@H]1/C=C\C=C(/C)C(=O)NC2=CC(=O)C(NCCN(C)C)=C(C[C@@H](C)C[C@H](OC)[C@H](O)[C@@H](C)/C=C(\C)[C@@H]1OC(N)=O)C2=O [ALVESPIMYCIN]
BT-549 [25]
  IC50: 17.1 µM
Hs-578T [26]
  IC50: 0.0084 µM
MDA-MB-231 [27]
  IC50: 45.7 µM

## CN(C)CC/C=C1\c2ccccc2COc2ccc(CC(=O)NN)cc21
MDA-MB-436
  IC50: 5 µM
